Counter-ions that a name gives are not always drawn.
How the values were obtained:
[1] = system: Hep3B; test: WST-8 cell viability assay, single agent in vitro toxicity; assay type: cell-based; conditions: Homo sapiens, 72 hours of incubation, media containing 0.5% DMSO, read-out: IC50 Values of Each Drug per HCC Cell Line
Method: (§1) Growth inhibition by the base drugs used in this study was evaluated on three different hepatoma cell lines—two human HCC lines and one rat cell line—using a 2-(2-methoxy-4-nitrophenyl)-3-(4-nitrophenyl)-5-(2,4-disulfophenyl)-2H-tetrazolium monosodium salt (WST-8) cell viability assay (Dojindo Molecular Technologies, Inc., Rockville, MD). Human cell lines Hep3B and HepG2 were obtained from ATCC (Manassas, VA) and cultured in EMEM cell culture medium (ATCC) supplemented with 10% fetal bovine serum (FBS). The rat hepatoma line McA-RH7777 was generously donated by the Larson Lab (Northwestern University, IL). This line was cultured in DMEM cell culture medium (ATCC) supplemented with 10% FBS. All lines were grown at 37° C. in a humidified atmosphere of 5% CO2.
(§2) To prevent precipitation of the drugs, media containing 0.5% DMSO was used throughout all the studies. Doubling times of the cell lines were similar; therefore, cells were plated at the same density of 7,000 cells per well in 96-well plates for 24 hours. Media was removed, cells were washed with PBS, and treatment was applied. Drug concentrations were varied to include data points ranging from non-toxic to highly toxic. Following 72 hours of incubation, the media was removed and cell viability was quantified using the WST-8 assay with a SpectraMax M2 spectrophotometer (Molecular Devices, Sunnyvale, CA).
(§3) Each experiment was performed with N=6, assessing viability at 10 different drug concentrations. Relative cell viability was calculated by normalizing against the UV absorbance of untreated cells. GraphPad Prism was used to plot relative cell viability as a function of log drug concentration with a non-linear least-squares regression analysis and calculation of IC50 values.

[2] = system: human HCC HepG2 cells; test: as above; assay type: cell-based; conditions: 72 hours of incubation, media containing 0.5% DMSO, read-out: IC50 Values of Each Drug per HCC Cell Line
Method: as §1, §2, §3

[3] = system: rat hepatoma line McA-RH7777; test: as above; assay type: cell-based; conditions: 72 hours of incubation, media containing 0.5% DMSO, read-out: IC50 Values of Each Drug per HCC Cell Line
Method: as §1, §2, §3

[4] = In vitro drug release from 12% SELP-815K gels (RP-HPLC); assay type: physicochemical; conditions: day 30
Method: (§4) For dual drugs, drug loading was 12.5 mg/mL for each drug, for a total drug loading of 25 mg/mL. Samples were chilled on ice until tested. Samples incorporating powder drug in 12% w/w SELP-815K were prepared without dilution; however, the volume addition of the powdered drug was not considered in the calculation of the SELP concentration. Samples with powdered drug were tested at 25 and 50 mg/mL for single drug loaded samples and 25 mg/mL per drug for dual drug loaded samples.
The drug loaded SELP solutions were drawn into 0.5 cd insulin syringes and incubated overnight at 37° C. followed by cutting into gel disks as previously described. Weights were recorded. Individual gels were placed into 8 dram glass vials, to which 25 mL of release media consisting of 1×PBS, 1% SDS was added. The elution volume was chosen to ensure sink conditions and complete dissolution of both drugs, if all drug eluted immediately. […]
Drug content in the release media was detected by reverse phase high performance liquid chromatography (RP-HPLC; Agilent Technologies, Santa Clara, CA) using a RPC18 X-Terra column (4.6×250 mm, 5 µm particle size; Waters, Milford, MA) and a guard column of the same packing material. […] Percent cumulative release was calculated using the experimental drug loading per disk based on the pre-release weight.

[5] = In vitro drug release from 9% SELP-815K gels (RP-HPLC); assay type: physicochemical; conditions: for cumulative release of sorafenib: 9% SELP-815K, 14-day release
Method: (§5) SELP-815K formulations were prepared at 12% w/w in 1× phosphate buffered saline (PBS). Powder drugs were milled for 12 hours to reduce crystal size and variability using a custom built ball mill. Milled samples were inspected microscopically to verify homogeneity. Two methods of drug incorporation were investigated. […] Drug loading concentration was chosen based on manufacturer specified loading of doxorubicin in DEBs. The same loading was used for sorafenib.
as §4
The drug loaded SELP solutions were drawn into 0.5 cd insulin syringes and incubated overnight at 37° C. followed by cutting into gel disks as previously described. Weights were recorded. Individual gels were placed into 8 dram glass vials, to which 25 mL of release media consisting of 1×PBS, 1% SDS was added. The elution volume was chosen to ensure sink conditions and complete dissolution of both drugs, if all drug eluted immediately.
At predetermined time points of 1 hour, 3 hours, 6 hours, 12 hours, 1 day, 3 days, 5 days, 7 days, 10 days, 14 days, and 20 and 30 days for extended-release studies, a sample volume was removed for analysis and replaced with fresh media. Vials were sealed and maintained in a shaking incubator at 37° C., 120 rpm. The 9% SELP-815K gels underwent release testing for 14 days. The 12% SELP-815K gels were tested for 30 days.
Drug content in the release media was detected by reverse phase high performance liquid chromatography (RP-HPLC; Agilent Technologies, Santa Clara, CA) using a RPC18 X-Terra column (4.6×250 mm, 5 µm particle size; Waters, Milford, MA) and a guard column of the same packing material. The elution gradient at time zero began with mobile phase of 40% 20 mM ammonium acetate and 60% acetonitrile (CAN), which increased to 72% CAN over 9 minutes at a flow rate of 1 mL/min. Percent cumulative release was calculated using the experimental drug loading per disk based on the pre-release weight.

[6] = Rheological characterization of drug loaded 9% SELP-815K; assay type: physicochemical; conditions: SELP solution with dox HCl, as drug powder or DMSO solution, 25 mg/mL
Method: as §5, §4
An AR 550 stress-controlled rheometer from TA Instruments (New Castle, DE) was used for rheological testing. A cone-and-plate configuration equipped with a stainless steel 20 mm diameter, 4 degree geometry was used. An oscillation procedure with a temperature ramp from 18° C. to 37° C. […]

Structure (SMILES) | IC50 [1] | IC50 [2] | IC50 [3] | total drug content of doxorubicin released (cumulative release) ([4]; 25 mg/mL single drug loaded and dual drug loaded gels) | cumulative release of doxorubicin ([4]; 50 mg/mL single drug loaded gel) | loaded doxorubicin released in the first day ([5]; 9% SELP-815K gels, base form, in DMSO or powder, first day) | loaded doxorubicin released by day 14 ([5]; 9% SELP-815K gels, base form, day 14) | cumulative release of sorafenib ([5]; DMSO dissolved drug, dual drug loaded gels (12.5 mg/mL each drug)) | cumulative release of sorafenib ([5]; DMSO dissolved drug, single drug loaded gel (25 mg/mL)) | cumulative release of sorafenib ([5]; powder drug, dual drug loaded gel (12.5 mg/mL each drug)) | cumulative release of sorafenib ([5]; powder drug, single drug loaded gel (25 mg/mL)) | viscosity relative to the SELP control with no drug [6]
COc1cccc2c1C(=O)c1c(O)c3c(c(O)c1C2=O)C[C@@](O)(C(=O)CO)C[C@@H]3O[C@H]1C[C@H](N)[C@H](O)[C@H](C)O1 [Doxorubicin] | 290 ± 40 nM | 620 ± 410 nM | 480 ± 320 nM | 30% | 15% | More than 50% | nearly all of the loaded drug released |  |  |  |  | 
CNC(=O)c1cc(Oc2ccc(NC(=O)Nc3ccc(Cl)c(C(F)(F)F)c3)cc2)ccn1 [Sorafenib] | 3470 ± 200 nM | 1720 ± 700 nM | 6880 ± 830 nM |  |  |  |  | 95% | less than 60% | 22% | 8.7% | 
COc1cccc2c1C(=O)c1c(O)c3c(c(O)c1C2=O)C[C@@](O)(C(=O)CO)C[C@@H]3O[C@H]1C[C@H](N)[C@H](O)[C@H](C)O1 [dox HCl, doxorubicin hydrochloride] |  |  |  |  |  |  |  |  |  |  |  | more than 2 fold

Reference: patent publication US12702674B2, “Methods for producing chemoembolic agents for the delivery of anti-cancer agents” (University of Utah Research Foundation, priority 2017, dated 2026)
